# From patent US6673812B1, “Preventives/remedies for glaucoma” (Senju Pharmaceutical Co., Ltd., priority 1998, dated 2004)
# Tested on: Japanese white rabbits
# Assay: Ophthalmic disorder caused by 8-time-a-day instillation to white rabbits: macroscopic observation of anterior segment of the eye
# Type: in vivo, rabbit
# Parameters: scale not given here
# Conditions: mean of three eyes
# Description: The test drugs, Compound A and Compound C, were each dissolved in the following base at a concentration of 0.125, 0.25, 0.5 and 1.0% and adjusted to pH 7 for use in this experiment. [table] Japanese white rabbits (body weight about 2 kg) purchased from Japan Laboratory Animals, INC. were used. These animals were bred in a breeding chamber set to temperature 23±3° C., humidity 55±10% and fed on limited amount of 100 g a day of a solid feed (Labo R Stock, Nihon-Nosan Kogyo K.K.). They were allowed free access to tap water. Instillation: Using a micropipet, each test drug (100 μl) was instilled into the right eye of each animal 8 times at one hour intervals. Into the left eye was instilled a base in the same manner. Observation: anterior segment of the eye was macroscopically observed before instillation and 30 min after 2nd, 4th, 6th and 8th administrations, according to the macroscopic criteria for ocular lesions as shown in Table 1 (Naruyuki Fukui, […] no Rinshou 4, 277-289, 1970). In addition, corneal staining spot was observed before instillation and after 8th administration. [table]
# [1] = 0.125%, 30 min after 2nd instillation
# [2] = 0.125%, 30 min after 4th instillation
# [3] = 0.125%, 30 min after 6th instillation
# [4] = 0.125%, 30 min after 8th instillation
# [5] = 0.25%, 30 min after 2nd instillation
# [6] = 0.25%, 30 min after 4th instillation
# [7] = 0.25%, 30 min after 6th instillation
# [8] = 0.25%, 30 min after 8th instillation
# [9] = 0.5%, 30 min after 2nd instillation
# [10] = 0.5%, 30 min after 4th instillation
# [11] = 0.5%, 30 min after 6th instillation
# [12] = 0.5%, 30 min after 8th instillation
# [13] = 1.0%, 30 min after 2nd instillation
# [14] = 1.0%, 30 min after 4th instillation
# [15] = 1.0%, 30 min after 6th instillation
# [16] = 1.0%, 30 min after 8th instillation
smiles,measurement,setting,value
"C[C@@H](N)c1ccc(C(=O)Nc2ccncc2)cc1.Cl.Cl [Compound C, (R)-(+)-N-(4-pyridyl)-4-(1-aminoethyl)benzamide 2HCl]",Score of ocular lesions: Conjunctiva Bulbar redness,[1],0
same,Score of ocular lesions: Conjunctiva Discharge,[1],0
same,Score of ocular lesions: Conjunctiva Nictitating membrane,[1],0
same,Score of ocular lesions: Conjunctiva Palpebral edema,[1],0
same,Score of ocular lesions: Conjunctiva Palpebral redness,[1],0
same,Score of ocular lesions: Cornea Area,[1],0
same,Score of ocular lesions: Cornea Degree,[1],0
same,Score of ocular lesions: Iris Values,[1],0
same,Score of ocular lesions: Total score,[1],0
same,Score of ocular lesions: Conjunctiva Bulbar redness,[2],0.50
same,Score of ocular lesions: Conjunctiva Discharge,[2],0.17
same,Score of ocular lesions: Conjunctiva Nictitating membrane,[2],0.33
same,Score of ocular lesions: Conjunctiva Palpebral edema,[2],0
same,Score of ocular lesions: Conjunctiva Palpebral redness,[2],0
same,Score of ocular lesions: Cornea Area,[2],0
same,Score of ocular lesions: Cornea Degree,[2],0
same,Score of ocular lesions: Iris Values,[2],0
same,Score of ocular lesions: Total score,[2],0.83
same,Score of ocular lesions: Conjunctiva Bulbar redness,[3],0.17
same,Score of ocular lesions: Conjunctiva Discharge,[3],0.50
same,Score of ocular lesions: Conjunctiva Nictitating membrane,[3],0.33
same,Score of ocular lesions: Conjunctiva Palpebral edema,[3],0.17
same,Score of ocular lesions: Conjunctiva Palpebral redness,[3],0.17
same,Score of ocular lesions: Cornea Area,[3],0
same,Score of ocular lesions: Cornea Degree,[3],0
same,Score of ocular lesions: Iris Values,[3],0
same,Score of ocular lesions: Total score,[3],0.84
same,Score of ocular lesions: Conjunctiva Bulbar redness,[4],0.50
same,Score of ocular lesions: Conjunctiva Discharge,[4],0
same,Score of ocular lesions: Conjunctiva Nictitating membrane,[4],0.50
same,Score of ocular lesions: Conjunctiva Palpebral edema,[4],0.33
same,Score of ocular lesions: Conjunctiva Palpebral redness,[4],0.33
same,Score of ocular lesions: Cornea Area,[4],0
same,Score of ocular lesions: Cornea Degree,[4],0
same,Score of ocular lesions: Iris Values,[4],0
same,Score of ocular lesions: Total score,[4],1.66
same,Score of ocular lesions: Conjunctiva Bulbar redness,"0.125%, Before instillation",0
same,Score of ocular lesions: Conjunctiva Discharge,"0.125%, Before instillation",0
same,Score of ocular lesions: Conjunctiva Nictitating membrane,"0.125%, Before instillation",0
same,Score of ocular lesions: Conjunctiva Palpebral edema,"0.125%, Before instillation",0
same,Score of ocular lesions: Conjunctiva Palpebral redness,"0.125%, Before instillation",0
same,Score of ocular lesions: Cornea Area,"0.125%, Before instillation",0
same,Score of ocular lesions: Cornea Degree,"0.125%, Before instillation",0
same,Score of ocular lesions: Iris Values,"0.125%, Before instillation",0
same,Score of ocular lesions: Total score,"0.125%, Before instillation",0
same,Score of ocular lesions: Conjunctiva Bulbar redness,[5],0.33
same,Score of ocular lesions: Conjunctiva Discharge,[5],0
same,Score of ocular lesions: Conjunctiva Nictitating membrane,[5],0.33
same,Score of ocular lesions: Conjunctiva Palpebral edema,[5],0
same,Score of ocular lesions: Conjunctiva Palpebral redness,[5],0
same,Score of ocular lesions: Cornea Area,[5],0
same,Score of ocular lesions: Cornea Degree,[5],0
same,Score of ocular lesions: Iris Values,[5],0
same,Score of ocular lesions: Total score,[5],0.66
same,Score of ocular lesions: Conjunctiva Bulbar redness,[6],0.33
same,Score of ocular lesions: Conjunctiva Discharge,[6],0
same,Score of ocular lesions: Conjunctiva Nictitating membrane,[6],0.50
same,Score of ocular lesions: Conjunctiva Palpebral edema,[6],0
same,Score of ocular lesions: Conjunctiva Palpebral redness,[6],0.33
same,Score of ocular lesions: Cornea Area,[6],0
same,Score of ocular lesions: Cornea Degree,[6],0
same,Score of ocular lesions: Iris Values,[6],0
same,Score of ocular lesions: Total score,[6],1.50
same,Score of ocular lesions: Conjunctiva Bulbar redness,[7],0.50
same,Score of ocular lesions: Conjunctiva Discharge,[7],0.67
same,Score of ocular lesions: Conjunctiva Nictitating membrane,[7],0.33
same,Score of ocular lesions: Conjunctiva Palpebral edema,[7],0.17
same,Score of ocular lesions: Conjunctiva Palpebral redness,[7],0.33
same,Score of ocular lesions: Cornea Area,[7],0
same,Score of ocular lesions: Cornea Degree,[7],0
same,Score of ocular lesions: Iris Values,[7],0
same,Score of ocular lesions: Total score,[7],2.83
same,Score of ocular lesions: Conjunctiva Bulbar redness,[8],0.67
same,Score of ocular lesions: Conjunctiva Discharge,[8],1.00
same,Score of ocular lesions: Conjunctiva Nictitating membrane,[8],1.33
same,Score of ocular lesions: Conjunctiva Palpebral edema,[8],0
same,Score of ocular lesions: Conjunctiva Palpebral redness,[8],0
same,Score of ocular lesions: Cornea Area,[8],0
same,Score of ocular lesions: Cornea Degree,[8],0
same,Score of ocular lesions: Iris Values,[8],0
same,Score of ocular lesions: Total score,[8],3.00
same,Score of ocular lesions: Conjunctiva Bulbar redness,"0.25%, Before instillation",0
same,Score of ocular lesions: Conjunctiva Discharge,"0.25%, Before instillation",0
same,Score of ocular lesions: Conjunctiva Nictitating membrane,"0.25%, Before instillation",0
same,Score of ocular lesions: Conjunctiva Palpebral edema,"0.25%, Before instillation",0
same,Score of ocular lesions: Conjunctiva Palpebral redness,"0.25%, Before instillation",0
same,Score of ocular lesions: Cornea Area,"0.25%, Before instillation",0
same,Score of ocular lesions: Cornea Degree,"0.25%, Before instillation",0
same,Score of ocular lesions: Iris Values,"0.25%, Before instillation",0
same,Score of ocular lesions: Total score,"0.25%, Before instillation",0
same,Score of ocular lesions: Conjunctiva Bulbar redness,[9],0.50
same,Score of ocular lesions: Conjunctiva Discharge,[9],0
same,Score of ocular lesions: Conjunctiva Nictitating membrane,[9],0.50
same,Score of ocular lesions: Conjunctiva Palpebral edema,[9],0
same,Score of ocular lesions: Conjunctiva Palpebral redness,[9],0
same,Score of ocular lesions: Cornea Area,[9],0
same,Score of ocular lesions: Cornea Degree,[9],0
same,Score of ocular lesions: Iris Values,[9],0
same,Score of ocular lesions: Total score,[9],1.00
same,Score of ocular lesions: Conjunctiva Bulbar redness,[10],0.50
same,Score of ocular lesions: Conjunctiva Discharge,[10],0.17
same,Score of ocular lesions: Conjunctiva Nictitating membrane,[10],0.33
same,Score of ocular lesions: Conjunctiva Palpebral edema,[10],0.33
same,Score of ocular lesions: Conjunctiva Palpebral redness,[10],0.33
same,Score of ocular lesions: Cornea Area,[10],0
same,Score of ocular lesions: Cornea Degree,[10],0
same,Score of ocular lesions: Iris Values,[10],0.33
same,Score of ocular lesions: Total score,[10],1.99
same,Score of ocular lesions: Conjunctiva Bulbar redness,[11],0.67
same,Score of ocular lesions: Conjunctiva Discharge,[11],1.00
same,Score of ocular lesions: Conjunctiva Nictitating membrane,[11],1.00
same,Score of ocular lesions: Conjunctiva Palpebral edema,[11],0.33
same,Score of ocular lesions: Conjunctiva Palpebral redness,[11],0.33
same,Score of ocular lesions: Cornea Area,[11],0
same,Score of ocular lesions: Cornea Degree,[11],0
same,Score of ocular lesions: Iris Values,[11],0
same,Score of ocular lesions: Total score,[11],3.83
same,Score of ocular lesions: Conjunctiva Bulbar redness,[12],1.00
same,Score of ocular lesions: Conjunctiva Discharge,[12],2.00
same,Score of ocular lesions: Conjunctiva Nictitating membrane,[12],1.00
same,Score of ocular lesions: Conjunctiva Palpebral edema,[12],2.83
same,Score of ocular lesions: Conjunctiva Palpebral redness,[12],2.00
same,Score of ocular lesions: Cornea Area,[12],0
same,Score of ocular lesions: Cornea Degree,[12],0
same,Score of ocular lesions: Iris Values,[12],0.67
same,Score of ocular lesions: Total score,[12],9.50
same,Score of ocular lesions: Conjunctiva Bulbar redness,"0.5%, Before instillation",0
same,Score of ocular lesions: Conjunctiva Discharge,"0.5%, Before instillation",0
same,Score of ocular lesions: Conjunctiva Nictitating membrane,"0.5%, Before instillation",0
same,Score of ocular lesions: Conjunctiva Palpebral edema,"0.5%, Before instillation",0
same,Score of ocular lesions: Conjunctiva Palpebral redness,"0.5%, Before instillation",0
same,Score of ocular lesions: Cornea Area,"0.5%, Before instillation",0
same,Score of ocular lesions: Cornea Degree,"0.5%, Before instillation",0
same,Score of ocular lesions: Iris Values,"0.5%, Before instillation",0
same,Score of ocular lesions: Total score,"0.5%, Before instillation",0
same,Score of ocular lesions: Conjunctiva Bulbar redness,[13],0.50
same,Score of ocular lesions: Conjunctiva Discharge,[13],0
same,Score of ocular lesions: Conjunctiva Nictitating membrane,[13],0.50
same,Score of ocular lesions: Conjunctiva Palpebral edema,[13],0
same,Score of ocular lesions: Conjunctiva Palpebral redness,[13],0.17
same,Score of ocular lesions: Cornea Area,[13],0
same,Score of ocular lesions: Cornea Degree,[13],0
same,Score of ocular lesions: Iris Values,[13],0
same,Score of ocular lesions: Total score,[13],1.17
same,Score of ocular lesions: Conjunctiva Bulbar redness,[14],0.50
same,Score of ocular lesions: Conjunctiva Discharge,[14],0
same,Score of ocular lesions: Conjunctiva Nictitating membrane,[14],0.50
same,Score of ocular lesions: Conjunctiva Palpebral edema,[14],0.17
same,Score of ocular lesions: Conjunctiva Palpebral redness,[14],0.50
same,Score of ocular lesions: Cornea Area,[14],0
same,Score of ocular lesions: Cornea Degree,[14],0
same,Score of ocular lesions: Iris Values,[14],0.67
same,Score of ocular lesions: Total score,[14],2.34
same,Score of ocular lesions: Conjunctiva Bulbar redness,[15],0.67
same,Score of ocular lesions: Conjunctiva Discharge,[15],0.33
same,Score of ocular lesions: Conjunctiva Nictitating membrane,[15],0.83
same,Score of ocular lesions: Conjunctiva Palpebral edema,[15],0.50
same,Score of ocular lesions: Conjunctiva Palpebral redness,[15],0.50
same,Score of ocular lesions: Cornea Area,[15],0
same,Score of ocular lesions: Cornea Degree,[15],0
same,Score of ocular lesions: Iris Values,[15],1.00
same,Score of ocular lesions: Total score,[15],3.83
same,Score of ocular lesions: Conjunctiva Bulbar redness,[16],2.00
same,Score of ocular lesions: Conjunctiva Discharge,[16],2.33
same,Score of ocular lesions: Conjunctiva Nictitating membrane,[16],1.67
same,Score of ocular lesions: Conjunctiva Palpebral edema,[16],3.33
same,Score of ocular lesions: Conjunctiva Palpebral redness,[16],2.33
same,Score of ocular lesions: Cornea Area,[16],0
same,Score of ocular lesions: Cornea Degree,[16],0
same,Score of ocular lesions: Iris Values,[16],1.00
same,Score of ocular lesions: Total score,[16],12.66
same,Score of ocular lesions: Conjunctiva Bulbar redness,"1.0%, Before instillation",0
same,Score of ocular lesions: Conjunctiva Discharge,"1.0%, Before instillation",0
same,Score of ocular lesions: Conjunctiva Nictitating membrane,"1.0%, Before instillation",0
same,Score of ocular lesions: Conjunctiva Palpebral edema,"1.0%, Before instillation",0
same,Score of ocular lesions: Conjunctiva Palpebral redness,"1.0%, Before instillation",0
same,Score of ocular lesions: Cornea Area,"1.0%, Before instillation",0
same,Score of ocular lesions: Cornea Degree,"1.0%, Before instillation",0
same,Score of ocular lesions: Iris Values,"1.0%, Before instillation",0
same,Score of ocular lesions: Total score,"1.0%, Before instillation",0
